{"source": "patent US20190292494A1", "about": "“STABILIZATION OF ENZYMES IN COMPOSITIONS” (BASF SE, priority 2016, published 2019)", "type_in_all_cases": "biochemical", "key": {"[1]": {"biological_target": "T1, protease according SEQ ID No: 1 (Lederbergia lenta, UniProt P29599, R99E)", "T1 sequence (P29599 whole entry R99E)": "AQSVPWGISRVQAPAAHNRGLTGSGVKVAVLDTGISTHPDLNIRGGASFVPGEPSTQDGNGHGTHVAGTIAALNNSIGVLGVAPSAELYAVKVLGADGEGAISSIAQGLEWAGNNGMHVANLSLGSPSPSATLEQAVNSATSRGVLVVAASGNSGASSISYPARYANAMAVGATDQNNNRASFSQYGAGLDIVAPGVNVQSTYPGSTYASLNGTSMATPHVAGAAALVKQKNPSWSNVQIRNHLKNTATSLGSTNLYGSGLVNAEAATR", "details": "for protease activity: activity without BBA and diol = 100%", "description": "(§1) Proteolytic activity of proteases has been measured using succinyl-Ala-Ala-Pro-Phe-p-nitroanilide (Suc-AAPF-pNA, short AAPF) as substrate, wherein pNA is cleaved from the substrate molecule by proteolytic cleavage, resulting in release of yellow color of free pNA which was quantified by measuring OD405.\n(§2) If not indicated otherwise, enzymatic activity was measured at 30° C.\n50 mM phosphate buffer (pH 7.5), 137 μM BBA, 4.8 mM Suc-AAPF-pNA, and 16 nM protease according SEQ ID No: 1 with 135 mM diol or without diol.\nThe protease activity was measured in presence of the Suc-AAPF-pNA substrate and in the absence of BBA and diol, which gives the 100% value in Table B.\nThe protease activity was measured in presence of the Suc-AAPF-pNA substrate and BBA, which gives the stabilization of protease by BBA—see Table C-I.\nThe protease activity was then measured in presence of the Suc-AAPF-pNA substrate and diol (without BBA), which gives the stabilization of protease by diol—see Table C-II.\nThe protease activity was then measured in presence of the Suc-AAPF-pNA substrate and BBA and diol, which gives the stabilization of protease by BBA and diol—see Table C-III."}, "[2]": {"biological_target": "T1, protease according SEQ ID No: 1", "details": "for protease activity: 2.3% (w/w) diol, 4.4 μM 4-FPBA, 4.8 mM Suc-AAPF-pNA, 16 nM protease, pH 7.5, activity with 4-FPBA only = 100%", "description": "as §1, §2\n50 mM phosphate buffer (pH 7.5), 4.4 μM 4-FPBA, 4.8 mM Suc-AAPF-pNA, and 16 nM protease according SEQ ID No: 1 with 2.3% w/w diol or without diol.\nThe protease activity was measured in presence of the Suc-AAPF-pNA substrate and the 4-FPBA only, which gives the 100% value in Table A.\nThe protease activity was also measured in the presence of AAPF-pNA substrate, 4-FPBA and 2.3% diol."}, "[3]": {"biological_target": "T1, protease according SEQ ID No: 1", "assay": "Mixtures of diols with 4-FPBA: protease activity (Suc-AAPF-pNA)", "description": "as §1, §2\n50 mM phosphate buffer (pH 7.5), 4.4 μM 4-FPBA, 4.8 mM Suc-AAPF-pNA, and 16 nM protease according SEQ ID No: 1 with one or two diols.\nThe protease activity was measured in presence of the Suc-AAPF-pNA substrate and 4-FPBA and one or two diols, which gives the stabilization of protease by 4-FPBA and one or two diols—see Table D.\nThe protease activity in presence of the Suc-AAPF-pNA substrate and 4-FPBA only is set 100%."}, "[4]": {"biological_target": "protease according to SEQ ID No: 1 (Lederbergia lenta, UniProt P29599, R99E)", "sequence (P29599 whole entry R99E)": "as above", "assay": "Storage stability of protease at 45° C. with diol alone (proteolytic activity, Suc-AAPF-pNA)", "details": "no boron compound; for stabilization of protease by diol alone during storage (in words): storage at 45° C., 20-50% w/w diol", "description": "as §1\nTo test the effect of diol alone towards the storage stability of proteases, a protease according to SEQ ID No: 1 was stored at 45° C. with varying concentrations of Propane-1,2-diol and Pentane-1,2-diol as indicated in Table B. 4% active protease according to SEQ ID No: 1 was present before storage for the assessment of its changes in proteolytic activity during storage.\nProteolytic activity was measured in the presence of 4.8 mM Sus-AAPF-pNa. As buffering system 50 mM phosphate buffer was used (pH 7.5). Before storage (time=0), the protease activity measured was set 100%."}}, "note": "“Also recorded” adds a separate entry of the source. Where two headings read alike, the source gives them in different places.", "data": [{"compound": "OCCO", "note": "[Ethylen-1,2-glycol, ethane-1,2-diol]", "values": [{"measurement": "protease activity", "setting": "[1]; 135 mM diol with 137 μM BBA", "value": 43, "unit": "%"}, {"measurement": "protease activity", "setting": "[1]; 135 mM diol, without BBA", "value": 97, "unit": "%"}, {"measurement": "protease activity", "setting": "[2]", "value": 54, "unit": "%"}]}, {"compound": "CCCC(O)CO", "note": "(centres unmarked) [Pentane-1,2-diol, pentane-1,2-diol]", "values": [{"measurement": "stabilization of protease in the presence of 4-FPBA (in words)", "setting": "[3]; of the diols tested, with 4-FPBA", "value": "stabilizes protease best"}, {"measurement": "stabilization of protease by diol alone during storage (in words)", "setting": "[4]", "value": "does not stabilize the protease, but rather destabilizes the protease"}, {"measurement": "stabilization of protease by diol in the presence of BBA (in words)", "setting": "[1]; 135 mM diol with 137 μM BBA", "value": "best increasing effect on stabilization of protease; also recorded: synergistic stabilization"}, {"measurement": "inhibitory effect towards proteolytic activity (in words)", "setting": "[1]; diol alone (135 mM, without BBA), of the diols tested", "value": "best inhibitory effect"}, {"measurement": "inhibitory effect towards proteolytic activity (in words)", "setting": "[2]; diol added to 4-FPBA, compared to the other diols used", "value": "strong inhibitory effect"}]}, {"compound": "CC(O)CO", "note": "(centres unmarked) [Propane-1,2-diol, propane-1,2-diol]", "values": [{"measurement": "protease activity", "setting": "[3]; Propane-1,2-diol 120 mM, Pentane-1,2-diol 0 mM, 4.4 μM 4-FPBA, 4-FPBA only = 100%", "value": 91, "unit": "%"}, {"measurement": "proteolytic activity before and after storage", "setting": "[4]; 20% w/w diol, 1 day at 45° C.", "value": 82, "unit": "%"}, {"measurement": "proteolytic activity before and after storage", "setting": "[4]; 20% w/w diol, 3 days at 45° C.", "value": 64, "unit": "%"}, {"measurement": "proteolytic activity before and after storage", "setting": "[4]; 20% w/w diol, 7 days at 45° C.", "value": 46, "unit": "%"}, {"measurement": "proteolytic activity before and after storage", "setting": "[4]; 20% w/w diol, 14 days at 45° C.", "value": 30, "unit": "%"}, {"measurement": "proteolytic activity before and after storage", "setting": "[4]; 20% w/w diol, cero (before storage, set 100%)", "value": 100, "unit": "%"}, {"measurement": "proteolytic activity before and after storage", "setting": "[4]; 30% w/w diol, 1 day at 45° C.", "value": 92, "unit": "%"}, {"measurement": "proteolytic activity before and after storage", "setting": "[4]; 30% w/w diol, 3 days at 45° C.", "value": 80, "unit": "%"}, {"measurement": "proteolytic activity before and after storage", "setting": "[4]; 30% w/w diol, 7 days at 45° C.", "value": 62, "unit": "%"}, {"measurement": "proteolytic activity before and after storage", "setting": "[4]; 30% w/w diol, 14 days at 45° C.", "value": 47, "unit": "%"}, {"measurement": "proteolytic activity before and after storage", "setting": "[4]; 30% w/w diol, cero (before storage, set 100%)", "value": 100, "unit": "%"}, {"measurement": "proteolytic activity before and after storage", "setting": "[4]; 50% w/w diol, 1 day at 45° C.", "value": 94, "unit": "%"}, {"measurement": "proteolytic activity before and after storage", "setting": "[4]; 50% w/w diol, 3 days at 45° C.", "value": 92, "unit": "%"}, {"measurement": "proteolytic activity before and after storage", "setting": "[4]; 50% w/w diol, 7 days at 45° C.", "value": 79, "unit": "%"}, {"measurement": "proteolytic activity before and after storage", "setting": "[4]; 50% w/w diol, 14 days at 45° C.", "value": 66, "unit": "%"}, {"measurement": "proteolytic activity before and after storage", "setting": "[4]; 50% w/w diol, cero (before storage, set 100%)", "value": 100, "unit": "%"}, {"measurement": "stabilization of protease by diol alone during storage (in words)", "setting": "[4]", "value": "stabilize the protease increasingly"}, {"measurement": "protease activity", "setting": "[1]; 135 mM diol with 137 μM BBA", "value": 40, "unit": "%"}, {"measurement": "protease activity", "setting": "[1]; 135 mM diol, without BBA", "value": 94, "unit": "%"}, {"measurement": "protease activity", "setting": "[2]", "value": 91, "unit": "%"}]}, {"compound": "benzene boronic acid [BBA]", "values": [{"measurement": "protease activity", "setting": "[1]; 137 μM BBA, no diol", "value": 66, "unit": "%"}]}]}
